Results from US6831080B2, “Cinnamide derivatives as KCNQ potassium channel modulators” (Bristol-Myers Squibb Company, priority 2001, dated 2004).

Assays:
[1] = system: cortical spreading depression (KCl application), Long-Evans rats; experiment: In vivo electrophysiology: number of cortical spreading depressions produced by KCl application; conditions: 1 mg/kg, i.v., 15 min prior to KCl; rat
Description: Male Long-Evans rats (300-450 g) were used in the present studies (Harlan). Rats were anesthetized with urethane anesthesia (1.2 g/kg i.p.) and placed in a stereotaxic frame. Under anesthesia a Silastic catheter was placed in the jugular vein of the rats. The skull was exposed using a scalpel. A small hole (approximately 2 mm by 3 mm) was drilled in to the skull rostral to the lambdoid suture using a microdrill and steel burr. The dura was disrupted and a drop of mineral oil was placed in this hole to prevent dehydration of the underlying cortex. Ultimately this hole was used for the application of crystalline KCl (described below).
Two additional holes were place in the skull unilaterally at 4 and 8 mm rostral to the application hole. Silver wire electrodes were placed in these latter holes and secured to the skull using acrylic cement. A similar silver wire electrode was sutured to the nuchal muscle to serve as a reference electrode. Electrical DC recordings were obtained using a standard differential amplifier (Warner, DP-304) and commercially available data acquisition equipment (Cambridge Electronic Design, 1401 A-D converter and Spike2 software).
All experimental procedures were conducted while the rats were maintained under anesthesia. Rats were injected with test compound, valproic acid or vehicle (100% PEG-400) 15 min prior to the application of crystalline KCl to the application site described above. All injections were given via the jugular vein at a volume of ≦0.5 ml/kg. Only one treatment was tested per animal. The effect of valproic acid was also determined in this study due to the fact that Depakote™ (divalproex sodium) is one of only three drugs currently indicated for the prophylatic treatment of migraine headache. Valproic acid (30-200 mg/kg i.v.) was obtained from Sigma Chemical Company and was dissolved in a vehicle of isotonic saline.
KCl was applied to the application site for 10 min and was then removed using a saline soaked cotton swab. Mineral oil was subsequently reapplied to the application site. Typically, this application produced a long-lasting series of spreading depressions. The number of spreading depressions produced by this KCl application was the primary measure used to access the effectiveness of compounds in this assay.
Data were analyzed using analyses of variance followed by the Dunnett post-hoc test for pairwise comparisons, when appropriate. A difference was considered significant when p≦0.05.
The effect of representative compounds of Formula I on spreading depression is expressed as the percent reduction from vehicle control and is listed in Table 3.

[2] = system: nerve injury-induced tactile allodynia (L5/L6 ligation), Sprague Dawley rats; experiment: Chung model of neuropathic pain (Chung surgery and von Frey test); type: in vivo, rat; conditions: i.v., von Frey thresholds over 90 min
Protocol: To test agents for activity against peripheral mononeuropathy nerve injury-induced tactile allodynia, male Sprague Dawley rats (wt. 120-160 g) were surgically prepared with unilateral tight ligation of spinal nerves L5 and L6 following the method of Kim and Chung (Kim S. H., Chung J. M. (1992) Pain, September;50(3):355-63). After 3-4 weeks recovery, paw withdrawal to light touch was assessed as described by Chaplan et al. (Chaplan S. R., et al., (1994) J. Neurosci Methods, July;53(1):55-63). In brief, rats are placed in a plastic cage with a wire mesh bottom and allowed to acclimate for 15-30 minutes, until cage exploration and grooming stops. The plantar surface of each hind paw is touched with a series of von Frey hairs with varying stiffness requiring a known force to buckle to determine the nociceptive threshold. Adult male Sprague Dawley rats (avg. wt. 340 g) were tested in the present study. After acclimation, baseline von Frey thresholds were assessed for the injured hindpaw at −15 min. All test compounds were delivered at 0 min by the intravenous (i.v.) route in a volume of 0.5-2 ml/kg. The vehicle for test compounds was 100% PEG-400. For gabapentin the vehicle was deionized H2O. Animals were tested in one of the following 4 treatment conditions: (a) PEG400, (b) gabapentin (Neurontin) 100 mg/kg, (c) test compounds 3 mg/kg and (d) test compounds 10 mg/kg. Following drug administration, von Frey thresholds are measured at 15, 30, 60 and 90 min. Data were analyzed by a 2-way repeated measures analysis of variance followed by Dunnett's test (p<0.05). Experimenters were kept blind to the treatment condition of rats they tested.
Reversal of neuropathic pain behavior may be expressed as a percentage (0-100%) of the maximum possible effect, over and above the vehicle effects. Specifically, drug effects can be described in terms Δ% MPE according to the following equation: [formula]
AUCdrug=area under the curve for von Frey thresholds of the drug-treated group;
AUCvehicle=area under the curve for von Frey thresholds in the vehicle group;
Time=duration of post-drug testing period (90 min); and
Max=maximum von Frey threshold (15 g).
For example, a compound which immediately reversed neuropathic pain behavior to normal levels, such that animals only responded to the highest von Frey filament (15 g), and maintained normal levels through out the post-drug testing period (90 min) would be calculated as Δ% MPE=100%.

[3] = system: stretched attend postures, BalbC/HSD mice; experiment: Canopy test for anxiety: stretched attend postures (SAPs); type: in vivo, mouse; conditions: for % Reduction SAPs: i.v., mouse
Description: The purpose of the Canopy test is to investigate the potential of compounds of Formula I as effective treatments for anxiety by examining an integral component of the risk assessment repertoire of defensive behaviors, the stretched attend posture (SAPs). […] This behavior is investigatory, and is considered an important behavioral indicator of anxiety in mice (Grewal et al., 1997). In brief, mice are placed on an elevated circular platform with a covered space in the middle, and an open space surrounding the covered zone. The number of SAPs the animals makes when exploring this environment are measured.
Subjects: Male BalbC/HSD mice (Harlan Sprague Dawley) weighing approximately 20-25 g at the beginning of the experiment, were used. Animals were group housed 4-5 per cage, in standard shoebox cages and maintained on a 12:12 h light-dark cycle (lights on at 0600). All animals were allowed food and water ad libitum throughout the procedure.
Apparatus: The test apparatus is comprised of a black plexiglas circular platform (70 cm diameter) elevated 60 cm above the floor. A clear red plexiglas (translucent) ‘canopy’ (38 cm diameter) is supported 4 cm directly above the platform by a central pillar, effectively dividing the platform into an inner, covered zone (beneath the canopy) and an outer, exposed zone. The apparatus is illuminated by normal room lighting.
Procedure: On test days mice are transported in their home cage to the testing room which is free of noise/distraction and the mice are injected with the compound of choice, prior to testing. For the KCNQ compounds, when administered IV, pretreatment time is 15 minutes. For oral administration, pretreatment time is 1 hour. Following the pretreatment, the animal is placed in the covered zone of the platform, always oriented in the same direction, facing the pillar. For 5 minutes the animals are allowed to freely explore the apparatus. The dependent variable is the number of Stretched Attend Postures, which are scored by an observer blind to treatment condition. Data were analyzed by an overall analysis of variance followed by Dunnett's post hoc tests. An effect was considered significant if p<0.05.
All test compounds are administered in a volume of 10 ml/kg. Vehicle and buspirone (as the positive control) treated mice were run with each experiment, and buspirone was dissolved in the same vehicle as used per each compound. Compounds of Formula I were administered IV, in a vehicle containing 10% PEG400/5% Tween/85% water, warmed on a hot plate.

Row | Compound | % Reduction (number of spreading depressions, from vehicle control) [1] | AUC (Δ% MPE) ([2]; 10 mg/kg) | % Reduction SAPs ([3]; 10 mg/kg) | % Reduction SAPs ([3]; 30 mg/kg) | Stretched attend postures, percent of vehicle control ([3]; separate experiments with a vehicle control, dose not given) | AUC (Δ% MPE) ([2]; 3 mg/kg) | % Reduction SAPs ([3]; 1.25 mg/kg)
1 | C[C@H](NC(=O)/C=C/c1ccc(F)cc1)c1ccc(F)c(N2CCOCC2)c1 [Example 169, (S)-N-[1-(4-Fluoro-3-morpholin-4-yl-phenyl)-ethyl]-3-(4-fluoro-phenyl)-acrylamide] | 25 (1 mg/kg, i.v.) % | 31 (10 mg/kg,i.v.) Δ% MPE | 18 (10 mg/kg, i.v.) % | – | – | – | –
2 | C[C@H](NC(=O)/C=C/c1ccccc1)c1cccc(N2CCOCC2)c1 [Example 82, (S)-3-Phenyl-N-[1-(3-morpholin-4-yl-phenyl)ethyl]acrylamide] | 27 (1 mg/kg, i.v.) % | 25 (10 mg/kg, i.v.) Δ% MPE | – | 28 (30 mg/kg, i.v.) % | 75 % of vehicle control | – | –
3 | C[C@H](NC(=O)/C=C/c1ccc(F)cc1)c1ccc2ccccc2c1 [Example 1, (S)-3-(4-Fluoro-phenyl)-N-(1-naphthalen-2-yl-ethyl)acrylamide] | 25 (1 mg/kg, i.v.) % | – | – | – | – | 8 (3 mg/kg, i.v.) Δ% MPE | 44 (1.25 mg/kg, iv.) %
